Legend:
[1] = tested on: human EGFR-positive HNSCC cell line HN6; test: CellTiter-Glo Luminescent Cell Viability Assay, HN6; assay type: cell-based; details: HN-6, read-out: IC50 to HNSCC cell lines (Erlotinib)
Protocol: FIG. 9 presents the data from in vitro efficacy analysis of the human EGF fusion toxins against human EGFR-positive HNSCC cell lines using CellTiter-Glo® Luminescent Cell Viability Assay (Promega) Y-axis: inhibition rate of the cell viability by determining the number of viable cells based on the quantification of the ATP present. X-axis: plated fusion toxin concentration. Cycloheximide (1.25 mg/mL) was used as a positive control. The negative control contained cells without fusion toxin. Data were from three individual experiments for each HNSCC cell line. Error bars indicate SD.
Y-axis: inhibition rate of the cell viability by determining the number of viable cells based on the quantification of the ATP present. […] Cycloheximide (1.25 mg/mL) was used as a positive control. […]
In vitro efficacy analysis of the human EGF fusion toxins (mEGF-IT and bEGF-IT) to the human HNSCC tumor cell lines was performed using CellTiter-Glo® Luminescent Cell Viability Assay (Promega Corporation, Madison, Wis.) as described previously (Zheng et al. (2017), Mol. Oncol. 11, 584-594, which is hereby incorporated by reference in its entirety). This cell viability assay measures the luminescence produced because of ATP production from metabolically active cells. […] The luminescence signals were recorded using BioTek Synergy LX Multi-Mode Reader.
IC50 was determined using nonlinear regression (curve fit) of Prism. […]

[2] = tested on: HNSCC Cal27 tongue-orthotopic tumors; test: Tongue-orthotopic tumor-bearing NSG mouse model; assay type: in vivo, NSG mice; details: for Median survival time: Tongue orthotopic model, fusion toxin or DT390 50 μg/kg IP, erlotinib 20 mg/kg gavage, once daily for 10 days from day 4; for tongue SCC tumor volume versus mono-EGF-IT and DT390 groups: second cohort, euthanized 8 days after tumor cell inoculation
Protocol: FIGS. 7A-7C presents the data from two animal studies of in vivo efficacy analysis of the human EGF fusion toxins against tongue squamous cell carcinomas (SCCs) in NSG mice. FIG. 7A presents the data from in vivo efficacy analysis of the human EGF fusion toxins using human EGFR-positive HNSCC Cal27 tongue-orthotopic tumor-bearing NSG mouse model. Eight million human EGFR-positive HNSCC Cal27 cells were injected into the tongue on day 0. Mice were injected intraperitoneally (IP) with the EGF fusion toxin or DT390 at 50 μg/kg, starting on day 4, once daily for 10 consecutive days. […] The schedule of the fusion toxin and tumor cell injection is pictured in the schematic below the survival curve. The vertical arrows indicate the days on which the tumor cells or the fusion toxins were injected. *P<0.05; **P<0.01; ***P<0.001; ****P<0.0001; ns: not significant.
FIG. 7B presents the data from a further in vivo efficacy analysis of the human EGF fusion toxins. […] The mice were euthanized on day 8 after tumor cell injection when the first mouse in the DT390 group reached the end point. The photograph depicts tongue squamous cell carcinomas (SCCs) (circled by the black dotted lines). Scale bar: 1 cm. FIG. 7C presents the FIG. 7B tumor volume comparison of the treatment groups. *P<0.05; **P<0.01
HNSCC tumor cells were injected via the following routes: 1) Flank-xenograft solid tumor model: eight million human HNSCC Cal27 tumor cells were subcutaneously injected into the right flank at day 0. The tumor-bearing mice were randomly divided into the four experimental groups when the tumors were palpable at day 3. The tumor volume was measured using digital vernier calipers every 3 days and calculated according to the formula: volume (mm^3)=(length×width×width)/2. 2) Tongue-orthotopic solid tumor model: eight million human HNSCC Cal27 tumor cells in 50 μl DMEM were injected into the tongue at day 0 following isoflurane anesthesia and the tumor-bearing mice were randomly divided into the planned four experimental groups at day 3. 3) Experimental metastasis model: one million human HNSCC Cal27 tumor cells in 200 μl DMEM were intravenously injected at day 0 via tail vein and the tumor-bearing mice were randomly divided into the four experimental groups at day 3.
Mono-EGF-IT (mEGF-IT), bEGF-IT, or DT390 was intraperitoneally injected (IP) starting at day 4 at 50 μg/kg, once daily for 10 consecutive days. […] The injected animals were observed daily for signs and symptoms of illness and scored at least twice weekly based on the parameters as previously reported (Peraino et al. (2013), J. Immunol. Methods 398-399, 33-43, which is hereby incorporated by reference in its entirety; Wang et al., 2015). The animals were humanely euthanized when the score exceeded the limit or the animal lost more than 15% of its pre-injection body weight. In addition, to assess whether the fusion toxins are toxic to the animals, NSG mice injected with the fusion toxins only were also included as control.
To assess the in vivo efficacy of the human EGF fusion toxins to the xenograft tumors in the head and neck area, a tongue-orthotopic tumor-bearing NSG mouse model was used as a second efficacy model. Eight million HNSCC Cal27 cells were injected into the tongue at day 0. The EGF fusion toxins were injected intraperitoneally (IP) starting on day 4 at 50 μg/kg daily for 10 consecutive days. Since the resulting tongue-orthotopic tumors severely affected the animal's eating and drinking, animals were euthanized earlier. Therefore, the median survival prolongation was not as impressive as that observed in the flank-xenograft solid tumor-bearing NSG mouse model. […] To further characterize the effect of the EGF fusion toxins on tumor volume, the orthotopic tongue SCC model study was repeated, and the mice were euthanized 8 days after tumor cell inoculation.

[3] = tested on: 14 human EGFR-positive HNSCC cell lines; test: CellTiter-Glo in vitro efficacy, all examined HNSCC cell lines together; assay type: cell-based
Protocol: Cycloheximide (1.25 mg/mL) was used as a positive control. […] Data were from three individual experiments for each HNSCC cell line.
In vitro efficacy of the human EGF fusion toxins against HNSCC cell lines were assessed using CellTiter-Glo® Luminescent Cell Viability Assay.

[4] = tested on: 14 EGFR+ HNSCC cells lines; test: Flow cytometry binding, all 14 EGFR+ HNSCC cell lines together; set-up: species or system human; details: mean over the 14 EGFR+ HNSCC cell lines
[5] = tested on: EGFR+ HNSCC cell line, Cal27; test: Blocking of anti-human EGFR mAb binding to Cal27 by nonbiotinylated fusion toxin (flow cytometry); details: nonbiotinylated fusion toxin as competitor
Source text: FIGS. 3C-D present representative data from analysis of the blocking of anti-human EGFR mAb binding to human EGFR-expressing (EGFR^+) HNSCC Cal27 by mEGF-IT and bEGF-IT using flow cytometry. FIG. 3C presents representative flow cytometry data, and FIG. 3D presents the percentage inhibition of anti-human EGFR mAb binding to Cal27 cells plotted versus the concentration of binding competitor (mono-EGF-IT or bi-EGF-IT). The data are representative of three individual experiments.
The biotinylated EGF fusion toxins also dose-dependently bound to all other examined HNSCC cell lines (FIG. 3, 11, and Table 4). […] One limitation to the flow cytometry binding assay is that the extent of biotinylation should be similar between the constructs. Otherwise, it could be hard to attribute the differences in fluorescence intensities to a change in affinity. To overcome this limitation, a blocking assay using nonbiotinylated mono-EGF-IT or bi-EGF-IT to block the binding of the anti-human EGFR mAb to the EGFR+ HNSCC cell line, Cal27, was performed (Wang et al, 2007, Bioconjug Chem 18: 944-955). […] The 14 examined HNSCC cell lines represent the main HNSCC cell lines used in the research community of the head and neck cancers.

For `C#Cc1cccc(Nc2ncnc3cc(OCCOC)c(OCCOC)cc23)c1` [Erlotinib], the IC50 [1] was 0.94 µM, the Median survival time [2] was 16.5 days and the “tongue SCC tumor volume versus mono-EGF-IT and DT390 groups” value [2] was “significantly smaller”. For the same molecule, the “in vitro efficacy against the examined HNSCC cell lines” value [3] was “effective in vitro against all 14 examined HNSCC tumor cell lines”.
For “Bi-EGF IT: DT390 joined by G4S to two human EGF domains linked by (G4S)3, C-terminal 6×His tag; SEQ ID NO: 10”, the Kd [4] was 0.00505 µM, the “blocking of anti-human EGFR mAb binding to Cal27 (result in words)” value [5] was “bound significantly stronger to Cal27 cells compared with mono-EGF-IT” and the Median survival time [2] was 15 days. The “tongue SCC tumor volume versus mono-EGF-IT and DT390 groups” value [2] was “significantly smaller”.
